# What was measured:
# PBS2 deletion strains = conditions: homozygous deletion set screens (Fuijta et al. 2006; van Voorst et al. 2006) and other literature; cited from earlier work
# [1] = tested on: translation at the initiation step; conditions: Ashe et al. 2001; cited from earlier work
# [2] = tested on: PBS2p over-producing strain; test: Growth yield in the presence of isobutanol, PBS2 ORF overexpressed from GAL1 promoter; type: cell-based, Saccharomyces cerevisiae; conditions: 1% isobutanol, PBS2p over-producing strain vs BY4741
# Method: The effect of overexpression of the PBS2 coding region was assessed as follows. A Yeast ORF collection (Gelperin, White et al. (2005) Genes Dev. 19(23):2816-2826)_is available from Open Biosystems (Huntsville, Ala.). In this collection yeast ORFs are expressed from the GAL1 promoter in the vector BG1805. This vector can be introduced into ura3 yeast mutants and transformants selected for uracil prototrophy. In the presence of galactose and the absence of glucose, expression from the GAL1 promoter is elevated about 1000 fold relative to the barely detectable level observed with glucose grown cells (Johnston and Davis (1984) Mol. Cell. Biol. 4(8):1440-1448). Note that each ORF encodes a fusion protein of the form:
# A plasmid containing the PBS2 ORF was obtained from this collection (YSC3867-9523439) and transformed into yeast strain BY4741 selecting for uracil prototrophy. […] Growth yield was measured by the following method. […] Absorbance was recorded.
# Cultures were grown for 2-3 hours to allow one doubling. Absorbance was recorded at this time and was called T=0. […] OD600 was measured after incubation on a roller drum for 2 days. […] Percent growth was calculated as 100×[average A600 of the triplicate isobutanol challenged cultures/average A600 of the triplicate control cultures.
# haploid cells = conditions: Lorenz et al. 2000; cited from earlier work
Molecule,hypersensitivity of PBS2 deletion strains (PBS2 deletion strains),other results
O=[As][O-].[Na+] [sodium metaarsenite],hypersensitive,
butanol,,effect on translation [1]: rapid inhibition of translation at the initiation step
OC[C@@H](O)[C@@H](O)[C@H](O)[C@@H](O)CO [sorbitol],hypersensitive,
OCCS [2-mercaptoethanol],hypersensitive,
COC(=O)Nc1nc2ccc(C(=O)c3cccs3)cc2[nH]1 [nocodazole],hypersensitive,
[Ca+2].[Cl-].[Cl-] [CaCl2],hypersensitive,
O[C@H](CS)[C@H](O)CS (racemic) [dithiothreitol],hypersensitive,
CCO [ethanol],not found to be hypersensitive,
CCCCCO [pentanol],not found to be hypersensitive,
CC(C)CO [isobutanol],,improvement in growth yield over the parental strain [2]: 41%
[Cl-].[Na+] [NaCl],hypersensitive,
tunicamycin,hypersensitive,
CCCO [propanol],not found to be hypersensitive,
CCCCO [1-butanol],,effect on growth morphology (haploid cells): stimulates filamentous growth in haploid cells

# Reference: patent US8455225B2, “Yeast with increased butanol tolerance involving high osmolarity/glycerol response pathway” (Butamax Advanced Biofuels LLC, priority 2008, dated 2013)
